Measurements taken from patent US20220187282A1, “CARDIOMYOCYTE PROLIFERATION” (The Council of the Queensland Institute of Medical Research, priority 2019, published 2022).
Read-outs that look alike come from different tables or passages of the source.

Tests used:
Format in all cases: biochemical
kinases [1] = molecular target: kinases (Homo sapiens, UniProt P42336)
kinases [2] = molecular target: kinases (Homo sapiens, UniProt Q7L7X3); details: TAOK1 FRET-Lantha SP; Test Conc(μM) 1
kinases [3] = molecular target: kinases (Homo sapiens, UniProt Q9Y3S1); details: WNK2 FRET-Lantha SP; Test Conc(μM) 1
kinases [4] = molecular target: kinases (Homo sapiens, UniProt P53779)
Chain of kinases (Homo sapiens, UniProt P53779) (P53779 whole entry): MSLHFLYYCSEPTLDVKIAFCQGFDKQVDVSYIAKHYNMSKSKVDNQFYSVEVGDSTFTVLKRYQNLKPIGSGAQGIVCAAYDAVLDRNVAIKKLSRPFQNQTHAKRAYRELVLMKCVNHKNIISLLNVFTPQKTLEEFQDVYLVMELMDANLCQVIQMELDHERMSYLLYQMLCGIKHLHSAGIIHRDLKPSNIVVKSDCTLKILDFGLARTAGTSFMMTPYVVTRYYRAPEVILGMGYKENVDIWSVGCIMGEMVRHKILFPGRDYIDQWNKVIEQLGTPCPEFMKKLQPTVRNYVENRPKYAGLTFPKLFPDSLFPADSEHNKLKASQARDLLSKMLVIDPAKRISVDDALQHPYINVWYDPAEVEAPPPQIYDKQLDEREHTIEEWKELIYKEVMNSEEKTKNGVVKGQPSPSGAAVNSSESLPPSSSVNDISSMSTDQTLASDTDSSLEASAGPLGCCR

kinases [5] = molecular target: kinases (Homo sapiens, UniProt O00443); details: PIK3C2A FRET-Adapta SP; Test Conc(μM):ATP Conc(μM) 1:25
kinases [6] = molecular target: kinases (Homo sapiens, UniProt Q14680); details: MELK FRET-Z-Lyte SP; Test Conc(μM):ATP Conc(μM) 1:25
kinases [7] = molecular target: kinases (Homo sapiens, UniProt Q9BWU1); details: Test Conc(μM) 1
Chain of kinases (Homo sapiens, UniProt Q9BWU1) (Q9BWU1 whole entry): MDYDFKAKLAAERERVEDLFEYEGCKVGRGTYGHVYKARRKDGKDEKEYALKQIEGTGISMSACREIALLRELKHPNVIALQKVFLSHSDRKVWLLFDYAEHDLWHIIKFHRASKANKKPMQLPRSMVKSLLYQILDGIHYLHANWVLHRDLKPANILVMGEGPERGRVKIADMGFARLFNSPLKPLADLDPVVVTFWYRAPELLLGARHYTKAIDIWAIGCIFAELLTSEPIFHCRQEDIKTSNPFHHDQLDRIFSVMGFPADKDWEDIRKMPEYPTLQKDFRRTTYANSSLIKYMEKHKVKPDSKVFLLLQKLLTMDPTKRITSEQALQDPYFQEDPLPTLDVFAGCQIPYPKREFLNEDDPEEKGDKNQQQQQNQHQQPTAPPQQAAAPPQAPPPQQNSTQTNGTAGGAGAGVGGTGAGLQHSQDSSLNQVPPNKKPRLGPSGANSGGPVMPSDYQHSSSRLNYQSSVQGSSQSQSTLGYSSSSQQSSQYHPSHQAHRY

kinases [8] = molecular target: kinases (Homo sapiens, UniProt Q13470); details: TNK1 FRET-Z-Lyte SP; Test Conc(μM):ATP Conc(μM) 1:200
kinases [9] = molecular target: kinases (Homo sapiens, UniProt Q02779); details: MAP3K10 (MLK2) FRET-Lantha SP; Test Conc(μM) 1
Chain of kinases (Homo sapiens, UniProt Q02779) (Q02779 whole entry): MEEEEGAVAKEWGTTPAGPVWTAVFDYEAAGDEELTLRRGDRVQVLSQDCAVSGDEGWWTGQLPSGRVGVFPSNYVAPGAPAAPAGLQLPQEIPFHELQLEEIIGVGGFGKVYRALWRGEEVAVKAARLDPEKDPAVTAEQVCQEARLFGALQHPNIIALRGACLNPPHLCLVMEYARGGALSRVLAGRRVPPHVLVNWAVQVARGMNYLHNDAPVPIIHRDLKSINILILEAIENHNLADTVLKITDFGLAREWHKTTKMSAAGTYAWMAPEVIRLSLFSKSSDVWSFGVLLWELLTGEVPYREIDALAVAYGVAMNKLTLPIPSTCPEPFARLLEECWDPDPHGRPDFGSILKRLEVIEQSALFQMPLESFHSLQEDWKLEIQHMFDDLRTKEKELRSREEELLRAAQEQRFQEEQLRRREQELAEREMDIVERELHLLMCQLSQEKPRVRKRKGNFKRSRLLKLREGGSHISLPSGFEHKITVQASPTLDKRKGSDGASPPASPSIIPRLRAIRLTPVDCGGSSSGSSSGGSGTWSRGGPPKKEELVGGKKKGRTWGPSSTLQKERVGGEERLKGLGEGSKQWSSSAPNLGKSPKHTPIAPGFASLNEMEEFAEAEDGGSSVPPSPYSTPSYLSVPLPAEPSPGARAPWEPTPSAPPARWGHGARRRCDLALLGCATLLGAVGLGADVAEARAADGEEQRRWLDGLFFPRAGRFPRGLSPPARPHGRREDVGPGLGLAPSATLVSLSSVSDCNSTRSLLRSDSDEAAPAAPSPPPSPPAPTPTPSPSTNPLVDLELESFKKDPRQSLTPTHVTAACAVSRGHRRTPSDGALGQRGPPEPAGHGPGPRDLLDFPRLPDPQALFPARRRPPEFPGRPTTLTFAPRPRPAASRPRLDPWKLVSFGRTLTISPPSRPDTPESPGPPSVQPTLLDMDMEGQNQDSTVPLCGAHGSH

kinases [10] = molecular target: kinases (Homo sapiens, UniProt Q13153); details: PAK1 FRET-Z-Lyte SP; Test Conc(μM):ATP Conc(μM) 1:50
Chain of kinases (Homo sapiens, UniProt Q13153) (Q13153 whole entry): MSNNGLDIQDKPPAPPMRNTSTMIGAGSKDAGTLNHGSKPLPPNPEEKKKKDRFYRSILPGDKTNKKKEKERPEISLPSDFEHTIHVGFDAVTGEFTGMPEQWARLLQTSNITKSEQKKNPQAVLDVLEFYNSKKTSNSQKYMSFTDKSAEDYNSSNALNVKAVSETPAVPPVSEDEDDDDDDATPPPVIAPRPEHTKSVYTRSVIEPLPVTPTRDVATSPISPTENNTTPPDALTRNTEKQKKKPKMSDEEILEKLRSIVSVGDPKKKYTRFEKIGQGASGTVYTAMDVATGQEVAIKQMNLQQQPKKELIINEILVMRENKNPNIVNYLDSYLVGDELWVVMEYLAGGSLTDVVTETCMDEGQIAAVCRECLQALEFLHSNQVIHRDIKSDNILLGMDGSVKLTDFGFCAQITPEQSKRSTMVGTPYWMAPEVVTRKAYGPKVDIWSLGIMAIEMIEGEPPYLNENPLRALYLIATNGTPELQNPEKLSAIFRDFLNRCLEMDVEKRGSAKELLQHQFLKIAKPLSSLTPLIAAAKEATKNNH

kinases [11] = molecular target: kinases (Homo sapiens, UniProt Q9NY57); details: STK32B (YANK2) FRET-Lantha SP; Test Conc(μM) 1
kinases [12] = molecular target: kinases (Homo sapiens, UniProt P36894); details: BMPR1A (ALK3) FRET-Lantha SP; Test Conc(μM) 1
kinases [13] = molecular target: kinases (Homo sapiens, UniProt Q07002); details: CDK18/cyclin Y FRET-Z-Lyte SP; Test Conc(μM):ATP Conc(μM) 1:75
kinases [14] = molecular target: kinases (Homo sapiens, UniProt O75914); details: PAK3 FRET-Z-Lyte SP; Test Conc(μM):ATP Conc(μM) 1:100
kinases [15] = molecular target: kinases (Homo sapiens, UniProt Q96RR4); details: CAMKK2 (Beta) FRET-Lantha SP; Test Conc(μM) 1
kinases [16] = molecular target: kinases (Homo sapiens, UniProt Q92630); details: DYRK2 FRET-Lantha SP; Test Conc(μM) 1
kinases [17] = molecular target: kinases (Homo sapiens, UniProt Q9P286); details: PAK7 (KIAA1264) FRET-Z-Lyte SP; Test Conc(μM):ATP Conc(μM) 1:5
kinases [18] = molecular target: kinases (Homo sapiens, UniProt P09769); details: FGR FRET-Z-Lyte SP; Test Conc(μM):ATP Conc(μM) 1:10
kinases [19] = molecular target: kinases (Homo sapiens, UniProt Q6PHR2); details: ULK3 FRET-Lantha SP; Test Conc(μM) 1
Chain of kinases (Homo sapiens, UniProt Q6PHR2) (Q6PHR2 whole entry): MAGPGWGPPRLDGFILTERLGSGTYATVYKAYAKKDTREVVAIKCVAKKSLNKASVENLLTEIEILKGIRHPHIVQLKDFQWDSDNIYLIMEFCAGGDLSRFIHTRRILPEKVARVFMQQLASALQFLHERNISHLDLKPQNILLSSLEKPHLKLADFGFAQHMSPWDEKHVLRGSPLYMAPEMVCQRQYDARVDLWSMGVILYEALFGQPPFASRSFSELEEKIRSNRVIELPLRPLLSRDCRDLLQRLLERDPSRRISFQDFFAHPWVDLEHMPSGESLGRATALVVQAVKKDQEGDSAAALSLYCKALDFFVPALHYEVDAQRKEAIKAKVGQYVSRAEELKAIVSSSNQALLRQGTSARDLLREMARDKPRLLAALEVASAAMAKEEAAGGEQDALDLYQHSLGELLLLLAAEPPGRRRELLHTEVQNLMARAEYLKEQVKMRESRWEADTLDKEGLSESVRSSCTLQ

kinases [20] = molecular target: kinases (Homo sapiens, UniProt Q07912); details: TNK2 (ACK) FRET-Lantha SP; Test Conc(μM) 1
kinases [21] = molecular target: kinases (Homo sapiens, UniProt P25098); details: ADRBK1 (GRK2) FRET-Z-Lyte SP; Test Conc(μM):ATP Conc(μM) 1:10
kinases [22] = molecular target: kinases (Homo sapiens, UniProt Q02750)
Chain of kinases (Homo sapiens, UniProt Q02750) (Q02750 whole entry): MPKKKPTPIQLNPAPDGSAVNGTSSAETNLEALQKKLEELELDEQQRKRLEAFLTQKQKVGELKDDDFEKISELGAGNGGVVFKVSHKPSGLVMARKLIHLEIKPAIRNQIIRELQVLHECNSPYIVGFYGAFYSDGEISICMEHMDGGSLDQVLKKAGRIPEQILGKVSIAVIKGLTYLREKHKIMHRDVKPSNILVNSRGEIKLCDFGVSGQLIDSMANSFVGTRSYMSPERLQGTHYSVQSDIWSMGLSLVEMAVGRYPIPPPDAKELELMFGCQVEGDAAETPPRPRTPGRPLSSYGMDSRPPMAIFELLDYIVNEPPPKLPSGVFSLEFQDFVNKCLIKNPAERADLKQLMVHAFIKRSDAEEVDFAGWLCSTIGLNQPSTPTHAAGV

kinases [23] = molecular target: kinases (Homo sapiens, UniProt O96013); details: PAK4 FRET-Z-Lyte SP; Test Conc(μM):ATP Conc(μM) 1:5
Chain of kinases (Homo sapiens, UniProt O96013) (O96013 whole entry): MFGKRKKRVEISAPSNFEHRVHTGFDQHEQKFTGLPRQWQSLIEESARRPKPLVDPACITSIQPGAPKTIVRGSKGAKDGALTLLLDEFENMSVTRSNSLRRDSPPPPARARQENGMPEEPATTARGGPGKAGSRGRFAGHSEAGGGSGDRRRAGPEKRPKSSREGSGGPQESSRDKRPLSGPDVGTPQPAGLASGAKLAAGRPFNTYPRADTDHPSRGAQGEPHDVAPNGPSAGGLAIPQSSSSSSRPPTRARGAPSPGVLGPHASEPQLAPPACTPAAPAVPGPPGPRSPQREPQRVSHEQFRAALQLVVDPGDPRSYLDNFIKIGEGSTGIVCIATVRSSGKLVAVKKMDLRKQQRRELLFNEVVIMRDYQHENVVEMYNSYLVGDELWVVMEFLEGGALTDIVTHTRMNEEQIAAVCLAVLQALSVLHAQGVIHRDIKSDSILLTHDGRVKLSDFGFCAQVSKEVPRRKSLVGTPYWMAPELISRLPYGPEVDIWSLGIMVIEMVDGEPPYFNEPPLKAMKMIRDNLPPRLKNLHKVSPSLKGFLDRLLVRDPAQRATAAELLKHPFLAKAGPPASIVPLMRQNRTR

kinases [24] = molecular target: kinases (Homo sapiens, UniProt Q13627); details: DYRK1A FRET-Z-Lyte SP; Test Conc(μM):ATP Conc(μM) 1:100
kinases [25] = molecular target: kinases (Homo sapiens, UniProt P43250); details: GRK6 FRET-Z-Lyte SP; Test Conc(μM):ATP Conc(μM) 1:10
kinases [26] = molecular target: kinases (Homo sapiens, UniProt Q8NE63); details: HIPK4 FRET-Z-Lyte SP; Test Conc(μM):ATP Conc(μM) 1:50
kinases [27] = molecular target: kinases (Homo sapiens, UniProt Q13164); details: MAPK7 (ERK5) FRET-Z-Lyte SP; Test Conc(μM):ATP Conc(μM) 1:10
kinases [28] = molecular target: kinases (Homo sapiens, UniProt P06239); details: LCK FRET-Z-Lyte SP; Test Conc(μM):ATP Conc(μM) 1:50
[29] = PIK3CA/PIK3R1 FRET-Adapta SP, Test Conc(μM):ATP Conc(μM) 1:25
[30] = PIK3CA/PIK3R3 FRET-Adapta SP, Test Conc(μM):ATP Conc(μM) 1:10
[31] = MAPK10 (JNK3) FRET-Lantha SP, Test Conc(μM) 1
[32] = MAPK10 (JNK3)Cascade Z-Lyte SP, Test Conc(μM):ATP Conc(μM) 1:100
[33] = MAP2K1 (MEK1) FRET-Lantha SP, Test Conc(μM) 1
[34] = MAP2K1 (MEK1)Cascade Z-Lyte SP, Test Conc(μM):ATP Conc(μM) 1:100

Chain of kinases (Homo sapiens, UniProt P42336) (P42336 whole entry): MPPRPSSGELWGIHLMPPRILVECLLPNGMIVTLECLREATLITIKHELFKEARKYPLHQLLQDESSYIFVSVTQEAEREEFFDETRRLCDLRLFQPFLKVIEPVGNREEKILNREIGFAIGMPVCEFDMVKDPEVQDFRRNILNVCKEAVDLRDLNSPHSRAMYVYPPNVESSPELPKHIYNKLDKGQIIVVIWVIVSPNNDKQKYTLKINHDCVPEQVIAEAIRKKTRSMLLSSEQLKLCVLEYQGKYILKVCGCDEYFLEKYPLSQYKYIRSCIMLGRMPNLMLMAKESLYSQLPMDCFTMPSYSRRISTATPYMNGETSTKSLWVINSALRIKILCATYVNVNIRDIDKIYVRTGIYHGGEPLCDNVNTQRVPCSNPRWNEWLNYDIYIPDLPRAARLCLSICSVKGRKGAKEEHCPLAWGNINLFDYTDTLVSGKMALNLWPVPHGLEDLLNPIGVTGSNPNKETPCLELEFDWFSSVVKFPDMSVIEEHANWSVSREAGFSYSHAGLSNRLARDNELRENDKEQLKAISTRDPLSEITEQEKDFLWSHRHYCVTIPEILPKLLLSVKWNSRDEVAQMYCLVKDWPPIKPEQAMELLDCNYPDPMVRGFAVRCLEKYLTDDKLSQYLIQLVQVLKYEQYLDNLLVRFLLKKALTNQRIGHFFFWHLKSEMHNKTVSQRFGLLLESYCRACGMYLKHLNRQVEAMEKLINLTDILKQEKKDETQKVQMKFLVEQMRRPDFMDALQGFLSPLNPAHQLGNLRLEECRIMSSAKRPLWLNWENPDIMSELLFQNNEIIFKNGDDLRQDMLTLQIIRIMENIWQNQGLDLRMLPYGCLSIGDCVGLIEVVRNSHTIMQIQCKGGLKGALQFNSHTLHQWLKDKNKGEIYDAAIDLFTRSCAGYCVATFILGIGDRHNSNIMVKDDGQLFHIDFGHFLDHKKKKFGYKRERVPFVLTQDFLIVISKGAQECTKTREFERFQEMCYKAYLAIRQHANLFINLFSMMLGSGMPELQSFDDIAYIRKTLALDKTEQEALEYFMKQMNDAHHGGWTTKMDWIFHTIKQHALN

| Structure (SMILES) | Mean Inhib (%) (kinases [1]; [29]) | Mean Inhib (%) (kinases [1]; [30]) | Mean Inhib (%) (kinases [2]) | Mean Inhib (%) (kinases [3]) | Mean Inhib (%) (kinases [4]; [31]) | Mean Inhib (%) (kinases [4]; [32]) | Mean Inhib (%) (kinases [5]) | Mean Inhib (%) (kinases [6]) | Mean Inhib (%) (kinases [7]; CDK11(Inactive) FRET-Lantha SP) | Mean Inhib (%) (kinases [8]) | Mean Inhib (%) (kinases [9]) | Mean Inhib (%) (kinases [10]) | Mean Inhib (%) (kinases [11]) | Mean Inhib (%) (kinases [12]) | Mean Inhib (%) (kinases [13]) | Mean Inhib (%) (kinases [14]) | Mean Inhib (%) (kinases [15]) | Mean Inhib (%) (kinases [16]) | Mean Inhib (%) (kinases [17]) | Mean Inhib (%) (kinases [18]) | also measured |
| --- | --- | --- | --- | --- | --- | --- | --- | --- | --- | --- | --- | --- | --- | --- | --- | --- | --- | --- | --- | --- | --- |
| Cc1ccc(NC(=O)c2ccnc(N3CCOCC3)c2)cc1Nc1ccnc(N2CC(C)OC(C)C2)n1 (stereo not shown) [compound 3] | 8.4 | −3.0 | −6.0 | 9.6 | −0.2 | 10.6 | 1.7 | 3.6 | −0.2 | −8.8 | 0.6 | −1.9 | −1.3 | −1.5 | 2.7 | −0.3 | −2.5 | −0.5 | 3.9 | 9.4 | Mean Inhib (%) (kinases [7]; CDK11 Cyclin C FRET-Lantha SP): 2.1%; Mean Inhib (%) (kinases [19]): −2.1%; Mean Inhib (%) (kinases [20]): 0.2%; Mean Inhib (%) (kinases [21]): 8.4%; Mean Inhib (%) (kinases [22]; [33]): −3.2%; Mean Inhib (%) (kinases [22]; [34]): 20.0%; Mean Inhib (%) (kinases [23]): 0.9%; Mean Inhib (%) (kinases [24]): 6.2%; Mean Inhib (%) (kinases [25]): 0.8%; Mean Inhib (%) (kinases [26]): −2.8%; Mean Inhib (%) (kinases [27]): 0.2%; Mean Inhib (%) (kinases [28]): −4.1% |
| Cc1cc(Oc2ccnc(Nc3ccc(S(N)(=O)=O)cc3)c2)c(-c2ccccn2)nc1C [compound 65] | 0.0 | 3.9 | 33.0 | 5.8 | 5.5 | 1.1 | 8.7 | 6.0 | 1.0 | −4.5 | 2.7 | 14.1 | 2.1 | 83.6 | 1.2 | 23.3 | −3.4 | 9.6 | 4.7 | 67.3 | CDK11 Cyclin C FRET-Lantha SP Mean Mean Inhib (%) (kinases [7]; CDK11 Cyclin C): 3.8%; Mean Inhib (%) (kinases [19]): −2.4%; Mean Inhib (%) (kinases [20]): 6.5%; Mean Inhib (%) (kinases [21]): 1.0%; Mean Inhib (%) (kinases [22]; [33]): −0.5%; Mean Inhib (%) (kinases [22]; [34]): 17.3%; Mean Inhib (%) (kinases [23]): 7.4%; Mean Inhib (%) (kinases [24]): −1.9%; Mean Inhib (%) (kinases [25]): 2.1%; Mean Inhib (%) (kinases [26]): 8.8%; Mean Inhib (%) (kinases [27]): 6.6%; Mean Inhib (%) (kinases [28]): 39.7% |
